From article PMC2915928 (Bioorganic & medicinal chemistry, 2009)
Like-named read-outs stand apart in the source and are kept apart here.

Legend:
μ-opioid receptor [1] = molecular target: T1, μ-opioid receptor (Mus musculus, UniProt P42866); assay: biochemical; conditions: read-out: μ Emax, inhibition of basal [35S]GTPγS binding
[2] = molecular target: T2, nociceptin (NOP) receptor (Homo sapiens, UniProt P41146); assay: Inhibition of basal [35S]GTPγS binding; format: biochemical; conditions: read-out: NOP Emax, inhibition of basal [35S]GTPγS binding
T2 sequence (P41146 whole entry): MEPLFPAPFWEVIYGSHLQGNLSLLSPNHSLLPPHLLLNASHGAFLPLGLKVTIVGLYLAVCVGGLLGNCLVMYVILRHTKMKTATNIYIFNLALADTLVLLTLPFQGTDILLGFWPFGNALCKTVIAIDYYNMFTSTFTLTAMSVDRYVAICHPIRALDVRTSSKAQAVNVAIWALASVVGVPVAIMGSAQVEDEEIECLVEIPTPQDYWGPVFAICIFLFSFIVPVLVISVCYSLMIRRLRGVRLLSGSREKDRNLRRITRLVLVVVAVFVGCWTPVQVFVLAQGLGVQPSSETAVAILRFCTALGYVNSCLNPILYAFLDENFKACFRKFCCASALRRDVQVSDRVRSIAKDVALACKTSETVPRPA

[3] = molecular target: T2, nociceptin (NOP) receptor; assay: biochemical; conditions: read-out: NOP Emax, stimulation of [35S]GTPγS binding
μ-opioid receptor [4] = molecular target: T1, μ-opioid receptor; assay: biochemical; conditions: read-out: μ Emax, stimulation of [35S]GTPγS binding
μ-opioid receptor [5] = molecular target: T1, μ-opioid receptor
[6] = human liver microsomes

T1 sequence (P42866 whole entry): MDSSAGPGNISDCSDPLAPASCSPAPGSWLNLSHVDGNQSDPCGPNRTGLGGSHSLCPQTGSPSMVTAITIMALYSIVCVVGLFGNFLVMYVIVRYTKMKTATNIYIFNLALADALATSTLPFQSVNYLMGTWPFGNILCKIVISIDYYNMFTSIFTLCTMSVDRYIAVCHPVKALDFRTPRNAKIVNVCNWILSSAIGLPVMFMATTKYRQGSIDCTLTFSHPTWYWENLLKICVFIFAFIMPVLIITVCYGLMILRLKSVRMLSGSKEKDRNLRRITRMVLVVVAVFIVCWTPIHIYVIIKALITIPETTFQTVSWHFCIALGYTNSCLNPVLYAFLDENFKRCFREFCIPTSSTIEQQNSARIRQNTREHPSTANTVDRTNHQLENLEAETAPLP

Structure (SMILES): O=C(N[C@@H]1CC[C@@]2(O)[C@H]3Cc4ccc(O)c5c4[C@@]2(CCN3CC2CC2)[C@H]1O5)c1ccc(Cl)c(Cl)c1.O=C(O)C(=O)O [Compound 9]
- Emax (μ-opioid receptor [1]): 0%
- Emax [2]: 87 ± 6.9%
- Emax [3]: 0%
- Emax (μ-opioid receptor [4]): 80 to 85%
- μ Emax, stimulation of [35S]GTPγS binding (μ-opioid receptor [5]): 85 ± 7.4%

Structure (SMILES): O=C(N[C@@H]1CC[C@@]2(O)[C@H]3Cc4ccc(O)c5c4[C@@]2(CCN3CC2CC2)[C@H]1O5)c1ccc(Br)cc1.O=C(O)C(=O)O [Compound 6, 17-Cyclopropylmethyl-3,14β-dihydroxy-4,5α-epoxy-6β-[(4′-bromo)benzamido] morphinan]
- Change of N-oxide formation rate upon going from pH 7.4 to pH 10 [6]: doubled
